ChEMBL document CHEMBL1147368, “Constituents of Fevillea cordifolia: New Norcucurbitacin and Cucurbitacin Glycosides” (1993)

What was measured:
Assay type in all cases: functional
[1] = tested on: Rattus norvegicus; experiment: Antiinflammatory activity in rat assessed as inhibition of carrageenan-induced paw edema at 2 mg/kg, po
[2] = tested on: Rattus norvegicus; experiment: Antiinflammatory activity in rat assessed as inhibition of carrageenan-induced paw edema at 0.125 mg/kg, po
[3] = tested on: Rattus norvegicus; experiment: Antiinflammatory activity in rat assessed as inhibition of carrageenan-induced paw edema at 100 mg/kg, po

With COc1ccc2c(c1)c(CC(=O)O)c(C)n2C(=O)c1ccc(Cl)cc1 [INDOMETHACIN] the inhibition in vivo at 2 mg/kg [1] was 47%.
C[C@H]1C[C@H]2[C@@H]3CCC4=CC(=O)C=C[C@]4(C)[C@@]3(F)[C@@H](O)C[C@]2(C)[C@@]1(O)C(=O)CO [BETAMETHASONE] gave an inhibition in vivo at 0.125 mg/kg [2] of 63%.
CC(=O)Oc1ccccc1C(=O)O [ASPIRIN] was tested, and the inhibition in vivo at 100 mg/kg [3] was 44%.
